Calls of active or inactive are those of the source. The calls are words filed in the database; no cut-off is given here.
How the values were obtained:
SK-HEP1 [1] = assay: Cytotoxicity against human SKHEP1 cells after 48 hrs by one step ATP lite assay; type: functional, cell-based
MDA-MB-231 [2] = assay: Cytotoxicity against human MDA-MB-231 cells after 48 hrs by one step ATP lite assay; type: functional, cell-based
MDA-MB-231 [3] = assay: Induction of apoptosis in human MDA-MB-231 cells assessed as morphological changes at 60 uM after 48 hrs; type: functional, cell-based
SK-HEP1 [4] = assay: Growth inhibition of human SKHEP1 cells at 70 uM after 48 hrs by one step ATP lite assay in presence of z-VAD-fmk; type: functional, cell-based
SK-HEP1 [5] = assay: Induction of apoptosis in human SKHEP1 cells assessed as morphological changes at 60 uM after 48 hrs; type: functional, cell-based
MDA-MB-231 [6] = assay: Growth inhibition of human MDA-MB-231 cells at 70 uM after 48 hrs by one step ATP lite assay in presence of z-VAD-fmk; type: functional, cell-based
[7] = Cytotoxicity against non malignant human hematological disorder bone marrow cells after 48 hrs by one step ATP lite assay; type: cell-based; details: Bone marrow cell
SK-HEP1 [8] = assay: Growth inhibition of human SKHEP1 cells at 100 uM after 48 hrs by one step ATP lite assay; type: functional; design: scale not given: the % may be the effect or the level left
MDA-MB-231 [9] = assay: Growth inhibition of human MDA-MB-231 cells at 100 uM after 48 hrs by one step ATP lite assay; type: functional; details: MDA-MB-231, 48 h, read-out: GI

Compound	Activity (SK-HEP1 [1])	Activity (MDA-MB-231 [2])	Activity (MDA-MB-231 [3])	IC50 (SK-HEP1 [1]; SK-HEP1, 48 h)	Activity (SK-HEP1 [4])	Activity (SK-HEP1 [5])	IC50 (MDA-MB-231 [2]; MDA-MB-231, 48 h)	Activity (MDA-MB-231 [6])	IC50 [7]	Activity (SK-HEP1 [8])	inhibition of growth at 100 µM (MDA-MB-231 [9])
COc1cc(P(=O)(c2ccccc2)c2ccccc2)cc(OC)n1	Active	Active	–	–	–	–	–	–	–	–	–
COc1nc(OC)c(Br)c(P(=O)(c2ccccc2)c2ccccc2)c1Br	–	–	Active	38.5 µM	inactive	Active	47.5 µM	inactive	54.2 µM	–	–
COc1cc(P(=O)(c2ccccc2)c2ccccc2)c(Br)c(OC)n1	–	–	Active	–	–	Active	–	–	–	30%	30%

Reference: ChEMBL document CHEMBL1154394, “The preparation of 2,6-disubstituted pyridinyl phosphine oxides as novel anti-cancer agents” (Bioorg Med Chem Lett, 2009)
